Experimental findings from patent publication US20260297060A1, “COMPOUNDS FOR THE DEGRADATION OF MUTANT BRAF” (C4 THERAPEUTICS, INC., priority 2023, published 2026) are described below.

Like-named read-outs stand apart in the source and are kept apart here.

Series [1] has as its system A375 human melanoma xenografts. Put plainly: Example 9 efficacy study Part I in A375 human melanoma xenografts (tumor volume, T/C, TGI). The class given is in vivo, BALB/c nude mice. The following applies: 10 mg/kg, p.o., BID × 14 days; for Tumor Size on PG-D14: Mean ± SEM; for TGI (Tumor Growth Inhibition): PG-D14; for T/C: PG-D14, treated/control average tumor volume. The procedure:
For efficacy study Part I, agents were tested in the A375 human melanoma xenografts. Compound 218 and Compound 157 were administered to BALB/c nude mice bearing A375 xenografts from day 0 and dosed twice a day (BID) for 14 days. Compound 218 and Compound 157 were dosed at 10 mg/kg via p.o.. Dabrafenib was administered from day 1 daily (QD) for 14 days and dosed at 100 mg/kg via p.o..
The A375 tumor cells were maintained in vitro in DMEM medium supplemented with […] and 1% Penicillin-Streptomycin at 37° C. in an atmosphere of 5% CO2 in air. The tumor cells were routinely subcultured twice weekly. The cells growing in an exponential growth phase were harvested and counted for tumor inoculation.
Each mouse was inoculated subcutaneously at the right flank with A375 cells (5×10^6) in 0.2 mL of PBS supplemented with Matrigel (PBS: Matrigel=1:1) for tumor development. Animals were grouped for the treatment when the average tumor volume reached 243 mm^3 for efficacy study part I and 413 mm^3 for the PK and PD study part I on day 15, and 271 mm^3 for efficacy part II and 443 mm^3 for the PK and PD part II on day 18, and 463 mm^3 for the PK and PD study part III on day 21. The test articles administration and the animal numbers in each group are shown in the above experimental tables.
Prior to the onset of drug treatment, mice were measured for tumor size in two dimensions using a caliper, and the tumor volume (mm^3) was calculated using formula V=0.5 a×b^2 where a and b are the long and short diameters of the tumor in mm, respectively. Mice were randomized into different treatment groups based on the tumor volume.
The major endpoint was to see if the tumor growth could be delayed or mice could be cured. The tumor size was then used for calculations of T/C value. The T/C value (in percent) is an indication of antitumor effectiveness; T and C are the mean volumes of the treated and control groups, respectively on specified day.
TGI was calculated for each group using the formula: TGI (%)=[1−(Ti−T0)/(Ci−C0)]×100; Ti is the average tumor volume of a treatment group on a given day, To is the average tumor volume of the treatment group on the day of treatment start, Ci is the average tumor volume of the vehicle control group on the same day with Ti, and C0 is the average tumor volume of the vehicle group on the day of treatment start.
(In general: A xenograft is tissue or cells of one species grown in another, often human tumour cells in immunodeficient mice.)

Series [2] in a line: Example 6 pharmacokinetics assay for efficacy study (plasma, liver). As to conditions: 10 mg/kg, p.o., BID × 21 days; for concentration at 6 h: mouse, po. The class given is in vivo, BALB/c nude mice. As for the experimental part:
For efficacy study, compounds were tested in the A375 human melanoma xenografts. Known BRAF inhibitors encorafenib, and dabrafenib were used as positive controls. Encorafenib and dabrafenib were administered to BALB/c nude mice bearing A375 tumors on PG-D1 and dosed PO daily (QD) for 3 weeks. Encorafenib was dosed at 35 mg/kg. Dabrafenib was dosed at 100 mg/kg. Compound 83, Compound 93, Compound 70, and Compound 54 were administered to BALB/c nude mice bearing A375 tumors on PG-DO and dosed PO twice per day (BID) for 3 weeks. Compound 83, Compound 93, Compound 70, and Compound 54 were dosed at 10 mg/kg.
The plasma samples were collected at predetermined time points for PK analysis. The mice were euthanized at predetermined time points post the treatment. The blood samples were collected into the 1.5 mL Eppendorf tubes containing 15 μL of 0.5 M EDTA-K2. And then the anticoagulant blood samples were centrifuged at 2,500 g at 4° C. for 15 minutes. The plasma samples were separated into 2 aliquots. The 1st was used for PK analysis, and the 2nd served as backup. The samples were stored at −80° C. before bioanalysis.
Liver samples were collected at predetermined time points for PK analysis. The left lobe of the liver was dissected out and split into 2 parts. The 1st part was used for PK analysis and the 2nd part served as the backup for the study. The samples were transferred into pre-labeled tubes and quickly froze in liquid nitrogen within 2 minutes after dissection. The samples were stored at −80° C. before bioanalysis.
For efficacy study, the harvested plasma and liver were processed for pharmacokinetics analysis by LC/MS/MS with a concentration range of 2.00-2000 ng/mL for Encorafenib and Dabrafenib in plasma, 0.20-200 ng/mL for Encorafenib and Dabrafenib in liver, 50.0-50000 ng/mL for compound 83 and compound 70 in plasma, 20.0-20000 ng/mL for Compound 93 and Compound 54 in plasma, 5.00-5000 ng/mL for compound 93, compound 83, compound 70 and compound 54 in liver.

[3] abbreviates: liver, read-out: Concentration in Liver (mean ± SEM).
[4] abbreviates: plasma, read-out: Concentration in Plasma (mean ± SEM).

For `CCN(C)S(=O)(=O)Nc1ccc(F)c(Oc2ccc3ncc(OC4CC5(CCN(C6CCC(c7cc8c(cc7F)c(N7CCC(=O)NC7=O)nn8C)CC6)CC5)C4)nc3c2)c1C#N` (single isomer, unassigned) [Compound 218, 7-[2-cyano-3-[[ethyl(methyl)sulfamoyl]amino]-6-fluoro-phenoxy]-2-[[7-[4-[3-(2,4-dioxohexahydropyrimidin-1-yl)-5-fluoro-1-methyl-indazol-6-yl]cyclohexyl]-7-azaspiro[3.5]nonan-2-yl]oxy]quinoxaline], the “Tumor Volume Trace Over Time” value in series [1] (Day 0, Mean ± SEM) amounted to 243 ± 5 mm^3; in series [1] (Day 3, Mean ± SEM), 240 ± 21 mm^3; in series [1] (Day 7, Mean ± SEM), 114 ± 9 mm^3; in series [1] (Day 10, Mean ± SEM), 80 ± 9 mm^3; in series [1] (Day 14, Mean ± SEM), 60 ± 8 mm^3. For the same compound, in series [1], the “Tumor Size on PG-D14” value was 60 ± 8 mm^3. In addition, the “TGI (Tumor Growth Inhibition)” value in series [1] was 116.68%. Further, in series [1], the T/C (as a rule, the result in the treated group divided by that in the control group, in per cent) is on record as 4.47%.

For the compound `Cn1nc(N2CCC(=O)NC2=O)c2cc(F)c(C3CCC(N4CCC5(CC4)CC(n4cnc6ccc(Oc7c(F)ccc(NS(=O)(=O)C8CCCC8)c7C#N)cc6c4=O)C5)CC3)cc21` (single isomer, unassigned) [Compound 93, N-[2-cyano-3-[3-[7-[4-[3-(2,4-dioxohexahydropyrimidin-1-yl)-5-fluoro-1-methyl-indazol-6-yl]cyclohexyl]-7-azaspiro[3.5]nonan-2-yl]-4-oxo-quinazolin-6-yl]oxy-4-fluoro-phenyl]cyclopentanesulfonamide], the values for the concentration at 6 h in series [2] (setting [3]) and in series [2] (setting [4]) were 652 ± 180 ng/g and 1100 ± 389 ng/mL, respectively.

In the case of `CCN(C)S(=O)(=O)Nc1ccc(F)c(Oc2ccc3ncn(C4CC5(CCN(C6CCC(c7cc8c(cc7F)c(N7CCC(=O)NC7=O)nn8C)CC6F)CC5)C4)c(=O)c3c2)c1C#N` (single isomer, unassigned) [Compound 83, 6-[2-cyano-3-[[ethyl(methyl)sulfamoyl]amino]-6-fluoro-phenoxy]-3-[7-[4-[3-(2,4-dioxohexahydropyrimidin-1-yl)-5-fluoro-1-methyl-indazol-6-yl]-2-fluoro-cyclohexyl]-7-azaspiro[3.5]nonan-2-yl]-4-oxo-quinazoline], the values for the concentration at 6 h in series [2] (setting [3]) and in series [2] (setting [4]) were 11000 ± 1050 ng/g and 17100 ± 1510 ng/mL, respectively.

Regarding `CO[C@H]1CCN(S(=O)(=O)Nc2ccc(F)c(Oc3ccc4ncn([C@H]5COC6(CCN(C7CC8(C7)CN(c7cc9c(cc7F)c(N7CCC(=O)NC7=O)nn9C)C8)CC6)C5)c(=O)c4c3)c2C#N)C1` [Compound 157, (3S)-N-[2-cyano-3-[3-[(3R)-8-[2-[3-(2,4-dioxohexahydropyrimidin-1-yl)-5-fluoro-1-methyl-indazol-6-yl]-2-azaspiro[3.3]heptan-6-yl]-1-oxa-8-azaspiro[4.5]decan-3-yl]-4-oxo-quinazolin-6-yl]oxy-4-fluoro-phenyl]-3-methoxy-pyrrolidine-1-sulfonamide], the “Tumor Volume Trace Over Time” value in series [1] (Day 0, Mean ± SEM) stood at 243 ± 4 mm^3; in series [1] (Day 3, Mean ± SEM), 272 ± 12 mm^3; in series [1] (Day 7, Mean ± SEM), 191 ± 17 mm^3; in series [1] (Day 10, Mean ± SEM), 166 ± 15 mm^3; in series [1] (Day 14, Mean ± SEM) it was 183 ± 37 mm^3. For the same compound, the “Tumor Size on PG-D14” value in series [1] was determined as 183 ± 37 mm^3. For the same compound, the “TGI (Tumor Growth Inhibition)” value in series [1] is recorded as 105.48%. Besides, the T/C in series [1] is given as 13.68%.

Regarding `CCN(C)S(=O)(=O)Nc1ccc(F)c(Oc2ccc3ncn([C@H]4COC5(CCN(C6CC(c7cc8c(cc7F)c(N7CCC(=O)NC7=O)nn8C)C6)CC5)C4)c(=O)c3c2)c1C#N` (single isomer, unassigned) [Compound 70], in series [2] (6 h), the “Concentration in Liver (mean ± SEM)” value was 6392 ± 570 ng/g and the “Concentration in Plasma (mean ± SEM)” value was 16083 ± 1345 ng/mL.

Turning to `CCN(C)S(=O)(=O)Nc1ccc(F)c(Oc2ccc3ncc([C@@H]4COC5(CCN(C6CCC(c7cc8c(cc7F)c(N7CCC(=O)NC7=O)nn8C)CC6)CC5)C4)nc3c2)c1C#N` (single isomer, unassigned) [Compound 54], the concentration at 6 h in series [2] (setting [3]) amounted to 4240 ± 955 ng/g; in series [2] (setting [4]), 3990 ± 634 ng/mL.
